Experimental data taken from patent publication US6982348B2, “Aminoethanol derivatives” (Takeda Pharmaceutical Company Limited, priority 2001, dated 2006).
Where a name gives a salt, the structure may show the parent alone.

| melting point [°C] | SMILES |
| --- | --- |
| 170 to 171 | COC(=O)CCC(=O)O[C@H](c1ccc(F)cc1)[C@H](Cc1cccc(OC(F)(F)C(F)F)c1)NC(=O)c1cccc2c1C=CCCC2 (racemic) (as salt: succinate) [Example 383, (1RS,2SR)-2-[(6,7-dihydro-5H-benzo[a]cyclohepten-1-ylcarbonyl)amino]-1-(4-fluorophenyl)-3-[3-(1,1,2,2-tetrafluoroethoxy)phenyl]propyl methyl succinate] |
| 154 to 155 | O=C(O)CCC(=O)O[C@H](c1ccc(F)cc1)[C@H](Cc1cccc(OC(F)(F)C(F)F)c1)NC(=O)c1cccc2c1C=CCCC2 (racemic) (as salt: succinate) [Example 384, (1RS,2SR)-2-[(6,7-dihydro-5H-benzo[a]cyclohepten-1-ylcarbonyl)amino]-1-(4-fluorophenyl)-3-[3-(1,1,2,2-tetrafluoroethoxy)phenyl]propyl hydrogen succinate] |
| 181 to 182 | O=C(O)CCC(=O)O[C@H](c1ccc(F)cc1)[C@H](Cc1cccc(OC(F)(F)C(F)F)c1)NC(=O)c1ccc(F)c2ccccc12 (racemic) (as salt: succinate) [Example 388, (1RS,2SR)-2-[(4-fluoro-1-naphthoyl)amino]-1-(4-fluorophenyl)-3-[3-(1,1,2,2-tetrafluoroethoxy)phenyl]propyl hydrogen succinate] |
| 228 to 229 | O=C(O)CCC(=O)O[C@H](c1ccc(F)cc1)[C@H](Cc1ccc(C(F)(F)F)cc1)NC(=O)c1cccc2c(Cl)cccc12 (racemic) (as salt: succinate) [Example 394, (1RS,2SR)-2-[(5-chloro-1-naphthoyl)amino]-1-(4-fluorophenyl)-3-[4-(trifluoromethyl)phenyl]propyl hydrogen succinate] |
| 196 to 197 | O=C(O)CCC(=O)O[C@H](c1ccc(F)cc1)[C@H](Cc1ccc2c(c1)OC(F)(F)C(F)(F)O2)NC(=O)c1ccc(F)c2ccccc12 (racemic) (as salt: succinate) [Example 396, (1RS,2SR)-1-(4-fluorophenyl)-2-[(4-fluoro-1-naphthoyl)amino]-3-(2,2,3,3-tetrafluoro-2,3-dihydro-1,4-benzodioxin-6-yl)propyl hydrogen succinate] |
| 159 to 181 | O=C(NC(Cc1ccc(C(F)(F)F)cc1)C(O)c1ccc(F)cc1)c1cccc2ccccc12 (racemic) [Example 1, N-[2-(4-fluorophenyl)-2-hydroxy-1-[[4-(trifluoromethyl)phenyl]methyl]ethyl]-1-naphthalenecarboxamide] |
| 149 to 150 | Cc1ccc(C(=O)NC(Cc2ccc(C(F)(F)F)cc2)C(O)c2ccc(F)cc2)c2ccccc12 (racemic) [Example 2, N-(2-(4-fluorophenyl)-2-hydroxy-1-((4-(trifluoromethyl)phenyl)methyl)ethyl)-4-methyl-1-naphthalenecarboxamide] |
| 123 to 124 | O=C(CCCc1cccs1)NC(Cc1ccc(C(F)(F)F)cc1)C(O)c1ccc(F)cc1 (racemic) [Example 4, N-(2-(4-fluorophenyl)-2-hydroxy-1-((4-(trifluoromethyl)phenyl)methyl)ethyl)-4-(2-thienyl)butyramide] |
| 139 to 155 | O=C(NC(Cc1ccc(C(F)(F)F)cc1)C(O)c1ccc(F)cc1)C1CCCC1 (racemic) [Example 5, N-[2-(4-fluorophenyl)-2-hydroxy-1-[[4-(trifluoromethyl)phenyl]methyl]ethyl]cyclopentanecarboxamide] |
| 155 to 179 | O=C(NC(Cc1ccc(C(F)(F)F)cc1)C(O)c1ccc(F)cc1)c1ccc(F)cc1 (racemic) [Example 6, 4-fluoro-N-[2-(4-fluorophenyl)-2-hydroxy-1-[[4-(trifluoromethyl)phenyl]methyl]ethyl]benzamide] |
| 174 to 176 | COc1ccc(C(=O)NC(Cc2ccc(C(F)(F)F)cc2)C(O)c2ccc(F)cc2)cc1 (racemic) [Example 7, N-[2-(4-fluorophenyl)-2-hydroxy-1-[[4-(trifluoromethyl)phenyl]methyl]ethyl]-4-methoxybenzamide] |
| 161 to 178 | O=C(NC(Cc1ccc(C(F)(F)F)cc1)C(O)c1ccc(F)cc1)C1CCCCC1 (racemic) [Example 8, N-[2-(4-fluorophenyl)-2-hydroxy-1-[[4-(trifluoromethyl)phenyl]methyl]ethyl]cyclohexanecarboxamide] |
| 170 to 180 | O=C(NC(Cc1ccc(C(F)(F)F)cc1)C(O)c1ccc(F)cc1)c1ccc(Cl)cc1 (racemic) [Example 9, 4-chloro-N-[2-(4-fluorophenyl)-2-hydroxy-1-[[4-(trifluoromethyl)phenyl]methyl]ethyl]benzamide] |
| 133 to 134 | O=C(NC(Cc1ccc(C(F)(F)F)cc1)C(O)c1ccc(F)cc1)c1ccccc1-c1ccccc1 (racemic) [Example 10, N-[2-(4-fluorophenyl)-2-hydroxy-1-[[4-(trifluoromethyl)phenyl]methyl]ethyl]-2-phenylbenzamide] |
| 135 to 164 | O=C(NC(Cc1ccc(C(F)(F)F)cc1)C(O)c1ccc(F)cc1)c1cccs1 (racemic) [Example 11, N-[2-(4-fluorophenyl)-2-hydroxy-1-[[4-(trifluoromethyl)phenyl]methyl]ethyl]-2-thiophenecarboxamide] |
| 167 to 169 | O=C(NC(Cc1ccc(C(F)(F)F)cc1)C(O)c1ccc(F)cc1)c1ccc(C(F)(F)F)cc1 (racemic) [Example 12, N-[2-(4-fluorophenyl)-2-hydroxy-1-[[4-(trifluoromethyl)phenyl]methyl]ethyl]-4-(trifluoromethyl)benzamide] |
| 138 to 158 | CCCCc1ccc(C(=O)NC(Cc2ccc(C(F)(F)F)cc2)C(O)c2ccc(F)cc2)cc1 (racemic) [Example 13, 4-butyl-N-[2-(4-fluorophenyl)-2-hydroxy-1-[[4-(trifluoromethyl)phenyl]methyl]ethyl]benzamide] |
| 148 to 150 | O=C(NC(Cc1ccc(C(F)(F)F)cc1)C(O)c1ccc(F)cc1)c1ccc2ccccc2c1 (racemic) [Example 14, N-[2-(4-fluorophenyl)-2-hydroxy-1-[[4-(trifluoromethyl)phenyl]methyl]ethyl]-2-naphthalenecarboxamide] |
| 169 to 170 | O=C(NC(Cc1ccc(C(F)(F)F)cc1)C(O)c1ccc(F)cc1)C12CC3CC(CC(C3)C1)C2 (racemic) [Example 15, N-[2-(4-fluorophenyl)-2-hydroxy-1-[[4-(trifluoromethyl)phenyl]methyl]ethyl]adamantane-1-carboxamide] |
| 97 to 99 | CC(C)(C)C(=O)NC(Cc1ccc(C(F)(F)F)cc1)C(O)c1ccc(F)cc1 (racemic) [Example 16, N-[2-(4-fluorophenyl)-2-hydroxy-1-[[4-(trifluoromethyl)phenyl]methyl]ethyl]-2,2-dimethylpropionamide] |
| 141 to 143 | Cc1cc(C)c(C(=O)NC(Cc2ccc(C(F)(F)F)cc2)C(O)c2ccc(F)cc2)c(C)c1 (racemic) [Example 17, N-[2-(4-fluorophenyl)-2-hydroxy-1-[[4-(trifluoromethyl)phenyl]methyl]ethyl]-2,4,6-trimethylbenzamide] |
| 115 to 117 | O=C(NC(Cc1ccc(C(F)(F)F)cc1)C(O)c1ccc(F)cc1)c1ccccc1F (racemic) [Example 18, 2-fluoro-N-[2-(4-fluorophenyl)-2-hydroxy-1-[[4-(trifluoromethyl)phenyl]methyl]ethyl]benzamide] |
| 58 | CC(C)(C)c1ccc(C(=O)NC(Cc2ccc(C(F)(F)F)cc2)C(O)c2ccc(F)cc2)cc1 (racemic) [Example 19, 4-tert-butyl-N-[2-(4-fluorophenyl)-2-hydroxy-1-[[4-(trifluoromethyl)phenyl]methyl]ethyl]benzamide] |
| 178 to 185 | O=C(NC(Cc1ccc(C(F)(F)F)cc1)C(O)c1ccc(F)cc1)c1ccc(-c2ccccc2)cc1 (racemic) [Example 20, N-[2-(4-fluorophenyl)-2-hydroxy-1-[[4-(trifluoromethyl)phenyl]methyl]ethyl]-4-phenylbenzamide] |
| 160 to 165 | O=C(NC(Cc1ccc(C(F)(F)F)cc1)C(O)c1ccc(F)cc1)c1cccnc1 (racemic) [Example 21, N-[2-(4-fluorophenyl)-2-hydroxy-1-[[4-(trifluoromethyl)phenyl]methyl]ethyl]-3-pyridinecarboxamide] |
| 95 to 96 | CC(C)(C)OC(=O)N[C@H](Cc1ccc(C(F)(F)F)cc1)[C@H](O)c1ccc(F)cc1 (racemic) [Example 24, 1,1-dimethylethyl(1RS,2RS)-2-(4-fluorophenyl)-2-hydroxy-1-((4-(trifluoromethyl)phenyl)methyl)ethylcarbamate] |
| 186 to 187 | CCOc1ccc2ccccc2c1C(=O)N[C@H](Cc1ccc(C(F)(F)F)cc1)[C@H](O)c1ccc(F)cc1 (racemic) [Example 25, 2-(ethyloxy)-N-((1RS,2RS)-2-(4-fluorophenyl)-2-hydroxy-1-((4-(trifluoromethyl)phenyl)methyl)ethyl)-1-naphthalenecarboxamide] |
| 134 to 135 | O=C(N[C@H](Cc1ccc(C(F)(F)F)cc1)[C@H](O)c1ccc(F)cc1)c1cccc2ccccc12 (racemic) [Example 26, N-((1RS,2RS)-2-(4-fluorophenyl)-2-hydroxy-1-((4-(trifluoromethyl)phenyl)methyl)ethyl)-1-naphthalenecarboxamide] |
| 162 to 163 | O=C(N[C@H](Cc1ccc(C(F)(F)F)cc1)[C@H](O)c1ccc(F)cc1)c1ccc(C(F)(F)F)cc1 (racemic) [Example 27, N-((1RS,2RS)-2-(4-fluorophenyl)-2-hydroxy-1-((4-(trifluoromethyl)phenyl)methyl)ethyl)-4-(trifluoromethyl)benzamide] |
| 158 to 159 | CC(C)(C)OC(=O)N[C@H](Cc1ccc(C(F)(F)F)cc1)[C@@H](O)c1ccc(F)cc1 (racemic) [Example 28, 1,1-dimethylethyl (1RS,2SR)-2-(4-fluorophenyl)-2-hydroxy-1-((4-(trifluoromethyl)phenyl)methyl)ethylcarbamate] |
